# Laboratory results from patent US8163737B2 (Vertex Pharmaceuticals Incorporated, priority 2006, dated 2012).
# Tests used:
# [1] = molecular target: T1, CGRP receptor (SK-N-MC membrane) (Homo sapiens, UniProt O60894+Q16602); test: I125-CGRP binding displacement assay on purified SK-N-MC membrane
# T1 construct: Purified SK-N-MC membrane was purchased from Perkin Elmer; purchased Perkin Elmer; host or cells: SK-N-MC membrane
# How it was run: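 Displacement of I125-CGRP binding was measured by filtration and scintillation counting after 2 h room-temperature incubation with compound and SK-N-MC membranes (buffer pH 7.4, MgCl2, BSA, Tween). Percent displacement calculated against total binding and 1 uM cold CGRP nonspecific controls, then curve-fitted.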
# endogenous CGRP receptor = endogenous CGRP receptor (Homo sapiens, UniProt O60894+Q16602); test: CGRP functional antagonism using SK-N-MC-BLA (4C10), β-lactamase transcriptional reporter assay; assay type: cell-based; conditions: SK-N-MC (4C10) cells, inhibition of β-lactamase expression in the presence of 200 pM CGRP
# Sequence of endogenous CGRP receptor (Q16602 23-461): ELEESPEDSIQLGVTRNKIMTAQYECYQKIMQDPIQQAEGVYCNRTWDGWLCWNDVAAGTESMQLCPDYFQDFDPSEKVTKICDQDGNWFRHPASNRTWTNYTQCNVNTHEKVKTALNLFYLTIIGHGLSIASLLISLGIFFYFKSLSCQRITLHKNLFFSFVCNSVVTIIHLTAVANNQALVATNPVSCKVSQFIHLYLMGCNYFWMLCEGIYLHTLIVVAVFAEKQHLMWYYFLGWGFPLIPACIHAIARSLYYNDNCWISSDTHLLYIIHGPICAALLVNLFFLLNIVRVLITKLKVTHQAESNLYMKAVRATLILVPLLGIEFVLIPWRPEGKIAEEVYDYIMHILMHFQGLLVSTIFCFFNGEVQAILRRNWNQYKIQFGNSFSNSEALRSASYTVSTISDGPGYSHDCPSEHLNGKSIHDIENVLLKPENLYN
# Sequence of endogenous CGRP receptor (O60894 27-148): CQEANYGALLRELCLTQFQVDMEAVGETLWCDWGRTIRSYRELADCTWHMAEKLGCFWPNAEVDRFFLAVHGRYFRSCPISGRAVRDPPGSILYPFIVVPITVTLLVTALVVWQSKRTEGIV
# T1 sequence (Q16602 23-461): as the sequence (Q16602 23-461) above
# T1 sequence (O60894 27-148): as the sequence (O60894 27-148) above
SMILES,Ki [1],IC50 (endogenous CGRP receptor)
CN1CCN(c2ccccc2[C@@H]2SC(CC(=O)N3CCCCC3)C(=O)N2CCC(C)(C)C)CC1 (stereo partly shown) [Compound 105],> 5 µM,> 5 µM
CC(C)OCCN1C(=O)[C@H](CC(=O)N2CCC(n3c(=O)[nH]c4ncccc43)CC2)SC1c1cccc(F)c1N1CCN(C(C)(C)C)CC1 (stereo partly shown) [Compound 531],< 1 µM,< 1 µM
COc1ccccc1C1SC(CC(=O)N2CCC(n3cc(-c4ccccc4)[nH]c3=O)CC2)C(=O)N1CCC(C)C (stereo not shown) [Compound 64],< 1 µM,1 to 5 µM
CC(C)CC1SC(CC(=O)N2CCC(N3Cc4ccccc4NC3=O)CC2)C(=O)N1CCc1ccncc1 (stereo not shown) [Compound 43],< 1 µM,1 to 5 µM
CC(C)CCN1C(=O)C(CC(=O)N2CCC(N3Cc4ccccc4NC3=O)CC2)SC1c1cccc(OC(F)(F)C(F)F)c1 (stereo not shown) [Compound 240],< 1 µM,1 to 5 µM
CC(C)CCN1C(=O)C(CC(=O)N2CCC(N3Cc4ccccc4NC3=O)CC2)SC1c1ccccc1F (stereo not shown) [Compound 170],< 1 µM,< 1 µM
CCCCN1C(=O)[C@H](CC(=O)N2CCC(N3CCc4ccccc4NC3=O)CC2)SC1c1cccc(F)c1N1CCN(C(C)(C)C)CC1 (stereo partly shown) [Compound 521],< 1 µM,< 1 µM
"CC(C)(C)CCN1C(=O)[C@H](CC(=O)N2CCC(N3CCc4ccccc4NC3=O)CC2)SC1c1cc(F)cc(F)c1N1CCN(C(C)(C)C)CC1 (stereo partly drawn) [Compound 478, (5S)-2-(2-(4-tert-Butylpiperazin-1-yl)-3,5-difluorophenyl)-3-(3,3-dimethylbutyl)-5-(2-oxo-2-(4-(2-oxo-4,5-dihydro-1H-benzo[d][1,3]diazepin-3(2H)-yl)piperidin-1-yl)ethyl)thiazolidin-4-one]",< 1 µM,< 1 µM
"CC(C)N1C(=O)C(CC(=O)N2CCC(N3Cc4ccccc4NC3=O)CC2)SC1c1ccccc1 (stereo not shown) [Compound 255, 3,4-Dihydro-3-(1-(2-(3-isopropyl-4-oxo-2-phenylthiazolidin-5-yl)acetyl)piperidin-4-yl)quinazolin-2(1H)-one]",< 1 µM,1 to 5 µM
CN1CCN(c2cccc(F)c2C2SC(CC(=O)N3CCC(n4c(=O)[nH]c5ccccc54)CC3)C(=O)N2CCC(C)(C)C)CC1 (stereo not shown) [Compound 348],> 5 µM,1 to 5 µM
O=C(CC1SC(c2ccccc2)N(C2CCCCC2)C1=O)N1CCC(N2Cc3ccccc3NC2=O)CC1 (stereo not shown) [Compound 1],< 1 µM,< 1 µM
CC(C)CCN1C(=O)[C@H](CC(=O)N2CCC(N3Cc4ccccc4NC3=O)CC2)SC1c1ccccn1 (stereo partly shown) [Compound 148],< 1 µM,1 to 5 µM
CC(C)N1CCN(c2c(F)cccc2[C@H]2S[C@@](C)(CC(=O)N3CCC(N4CCc5ccccc5NC4=O)CC3)C(=O)N2CCC(C)(C)C)CC1 [Compound 432],< 1 µM,< 1 µM
CC(C)CCN1C(=O)C(CC(=O)N2CCC(N3CCc4ccccc4NC3=O)CC2)SC1c1ccc(F)cc1Cl (stereo not shown) [Compound 79],< 1 µM,< 1 µM
C[C@@H]1CN(c2c(F)cccc2[C@H]2S[C@@H](CC(=O)N3CCC(N4CCc5ccccc5NC4=O)CC3)C(=O)N2CCC(C)(C)C)C[C@H](C)N1 [Compound 474],< 1 µM,1 to 5 µM
CN1CCN(c2ccc(F)cc2C2SC(CC(=O)N3CCC(n4c(=O)[nH]c5ccccc54)CC3)C(=O)N2CCC(C)(C)C)CC1 (stereo not shown) [Compound 354],< 1 µM,< 1 µM
CC(C)CCN1C(=O)C(CC(=O)N2CCC(n3cc4ccccc4nc3=O)CC2)SC1c1ccccc1 (stereo not shown) [Compound 259],< 1 µM,< 1 µM
CC(C)OCCN1C(=O)[C@H](CC(=O)N2CCC(N3CCc4ccccc4NC3=O)CC2)SC1c1cccc(F)c1N1CCN(C(C)(C)C)CC1 (stereo partly shown) [Compound 529],< 1 µM,< 1 µM

SMILES,Ki [1],IC50 (endogenous CGRP receptor)
CC(C)CCN1C(=O)C(CC(=O)N2CCC(N3CCc4ccccc4NC3=O)CC2)SC1c1ccccc1-n1cccn1 (stereo not shown) [Compound 183],< 1 µM,< 1 µM
CC(C)(C)CCN1C(=O)C(CC(=O)N2CCC(N3Cc4ccccc4NC3=O)CC2)SC1c1ncc[nH]1 (stereo not shown) [Compound 306],> 5 µM,> 5 µM
CC(C)CCN1C(=O)[C@H](CC(=O)N2CCC(N3CCc4ccccc4NC3=O)CC2)SC1c1cccc(F)c1N1CCN(C(C)(C)C)CC1 (stereo partly shown) [Compound 544],< 1 µM,< 1 µM
CN(C)C1CCN(c2c(F)cccc2[C@@H]2S[C@@H](CC(=O)N3CCC(n4c(=O)[nH]c5ncccc54)CC3)C(=O)N2CCC(C)(C)C)C1 (stereo partly shown) [Compound 456],< 1 µM,1 to 5 µM
"CC(C)CN1CCC(c2ncc(C3S[C@@H](CC(=O)N4CCC(N5CCc6ccccc6NC5=O)CC4)C(=O)N3CCC(C)(C)C)s2)CC1 (stereo partly drawn) [Compound 498, (5S)-3-(3,3-Dimethylbutyl)-2-(2-(1-isobutylpiperidin-4-yl)thiazol-5-yl)-5-(2-oxo-2-(4-(2-oxo-4,5-dihydro-1H-benzo[d][1,3]diazepin-3(2H)-yl)piperidin-1-yl)ethyl)thiazolidin-4-one]",< 1 µM,< 1 µM
CC(C)(C)CCN1C(=O)[C@H](CC(=O)N2CCC(N3CC(=O)NC3=O)CC2)S[C@H]1c1cccc(F)c1N1CCN(C(C)(C)C)CC1 [Compound 447],< 1 µM,< 1 µM
COCCN1C(=O)[C@H](CC(=O)N2CCC(n3c(=O)[nH]c4ncccc43)CC2)SC1c1cccc(F)c1N1CCN(C(C)(C)C)CC1 (stereo partly shown) [Compound 535],< 1 µM,< 1 µM
O=C(CC1SC(c2ccccc2)N(c2ccc3[nH]ncc3c2)C1=O)N1CCC(N2Cc3ccccc3NC2=O)CC1 (stereo not shown) [Compound 287],1 to 5 µM,1 to 5 µM
CC(C)(C)N1C(=O)C(CC(=O)N2CCC(N3Cc4ccccc4NC3=O)CC2)SC1c1ccccc1 (stereo not shown) [Compound 251],1 to 5 µM,> 5 µM
CC(C)CCN1C(=O)C(CC(=O)N2CCC(N3CCc4ccccc4NC3=O)CC2)SC1c1ccccc1N1CCC(O)CC1 (stereo not shown) [Compound 120],< 1 µM,< 1 µM
CN1CCN(c2ccccc2C2SC(CC(=O)N3CC(N4Cc5ccccc5NC4=O)C3)C(=O)N2CCC(C)(C)C)CC1 (stereo not shown) [Compound 477],< 1 µM,> 5 µM
CC(C)(C)CCN1C(=O)C(CC(=O)N2CCC(N3Cc4ccccc4NC3=O)CC2)SC1c1ccccc1N1CCN(c2ccccc2)CC1 (stereo not shown) [Compound 367],< 1 µM,< 1 µM
CC(C)(C)CCN1C(=O)C(CC(=O)N2CCC(n3c(=O)[nH]c4ccccc43)CC2)SC1c1ccccc1-n1ccnc1 (stereo not shown) [Compound 295],< 1 µM,< 1 µM
CC(C)(C)CCN1C(=O)C(CC(=O)N2CCC(n3c(=O)[nH]c4ccccc43)CC2)S[C@H]1c1ccccc1N1CCC(O)CC1 (stereo partly shown) [Compound 296],< 1 µM,< 1 µM
CC(C)(C)CCN1C(=O)[C@H](CC(=O)N2CCC(n3c(=O)[nH]c4ncccc43)CC2)S[C@@H]1c1cccc(F)c1C1CCNCC1 [Compound 554],< 1 µM,< 1 µM
CC(C)(C)CCN1C(=O)[C@H](CC(=O)N2CCC(N3CCc4ccccc4NC3=O)CC2)SC1c1cccc(F)c1N1CC[C@H](O)C1 (stereo partly shown) [Compound 485],< 1 µM,1 to 5 µM
CC(C)CCN1C(=O)C(CC(=O)N2CCC(N3Cc4ccccc4NC3=O)CC2)SC1c1cccnc1 (stereo not shown) [Compound 182],< 1 µM,< 1 µM
